{
  "source": "patent US11039618B2",
  "about": "“Metam salts and polysulfide soil treatment” (Tessenderlo Kerley, Inc, priority 2016, dated 2021)",
  "key": {"[1]": {"test_system": "Verticillium", "assay": "Example 6: Verticillium population in treated farm soil samples", "type": "cell-based", "conditions": "soil from another location"}, "[2]": {"test_system": "Pythium", "assay": "Example 6: Pythium population in treated farm soil samples", "type": "cell-based", "conditions": "soil from another location; average over rates: LSS 45 and 90 gal/acre; metam sodium 20 and 40 gal/acre; combination 20 and 40 gal metam with 45 gal LSS; untreated 150", "method": "Soil from a farm located in Washington state was treated with various solutions, and subsequently the population of Verticillium in treated samples were determined. Untreated samples contained 31 CFU per gram of dry soil. Soil treated with 90 gallons per acre liquid lime sulfur (276 pounds/acre or 309 kg/ha of calcium polysulfide) had less than 2 CFU per gram of dry soil. […] Samples treated with 170 pounds of metam sodium per acre and with a mixture of 138 pounds calcium polysulfide and 170 pounds of metam sodium per acre had about 70 to 80 CFU per gram of dry soil. […] The reason is not understood, and may reflect test protocols.\nClearly the test protocol and/or sample variability were over-riding factors. In tests on soil from another location, untreated soil had 150 CFU Pythium per gram of dry soil."}, "[3]": {"test_system": "Verticillium", "assay": "Jar test 2015: Verticillium microsclerotia colonies in treated soil (soil moisture 35% w/w)", "type": "cell-based, Verticillium dahliae", "conditions": "Metam 68 gal/acre (323 kg active/ha)", "method": "These investigations were performed under laboratory conditions in an initial jar test. We also investigated the pathogen control efficacy of LSS treatments, at 30 gal/acre (90 pounds/acre or 101 Kg/ha of calcium polysulfide) and at 90 gal/acre (276 pounds/acre or 310 Kg/ha of calcium polysulfide), and combined Metam/LSS treatments using Sectagon® brand metam at 20 gal/acre Metam (84 pounds/acre or 94 Kg/ha of metam sodium) with 40 gal/acre LSS (122 pounds/acre or 138 Kg/ha of calcium polysulfide); and at 30 gal/acre Metam (126 pounds/acre or […] of metam sodium) with 20 gal/acre LSS (60 pounds/acre or 67 kg/ha of calcium polysulfide). […] This may be due to lower water saturation in the 2016 tests compared to the saturation in 2015 tests, which was near 100%.\nThe major difference between the 2015 tests and the 2016 tests was soil moisture. For the 2015 tests the soil moisture was set at 35% w/w (ca. 100% field capacity). For the 2016 tests, the soil moisture was set at 20% w/w (ca. 66% field capacity).\nDifferences in test protocol between 2015 and 2016 tests are summarized below, and colony counts per gram of dry soil for the 2015 tests are shown below.\n2015: Soil Moisture 35% w/w (ca. 100% field capacity)\n2016: Decided 2015 soil moisture was too high; reduced to 20% w/w. […]"}, "[4]": {"test_system": "V. dahliae", "assay": "Field test near Moses Lake, Wash.: V. dahliae colonies in soil after shank treatment", "design": "species or system Verticillium dahliae", "conditions": "average of three sample sites, metam sodium 191 pounds/acre, calcium polysulfide 276 pounds/acre", "method": "A field test was performed in small plots in a grower's location in near Moses Lake, Wash. using commercial equipment, shanking the product 8-9 inches into the ground, in February 2016. A few treated areas were sampled a few months after treatment. This field is believed to be low in pest pressure. […] The mixture is compatible as a ground application, including using standard tanks, hoses, nozzles, and shanks. It is believed the product will also be stable when added to water to form a dilute product, due to the sodium or potassium hydroxide in metam. Therefore, alkali sulfide salts need not be added.\nLocation 1 was treated with 45 gallons per acre of Sectagon®, the metam sodium solution, equivalent to 191 pounds metam sodium per acre. This is considered a standard treatment protocol. Section 2 was treated with only liquid lime sulfur, at 90 gallons per acre (276 pounds calcium polysulfide/acre). Section 3 was treated with 30 gallons per acre Sectagon® and 30 gallons per acre liquid lime sulfur (92 pounds calcium polysulfide and 127 pounds metam sodium per acre). The treatment chemicals were obtained from Tessenderlo Kerley. A sufficient time following the treatments, V. dahliae concentrations and black dot concentrations were determined at 4 inches depth and at 8 inches depth at three random sample sites in each treated plot. No controls were run, and the variability in samples were high. […]"}},
  "data": [
    {"smiles": "CNC(=S)S", "note": "[Metam, sodium methyldithiocarbamate]", "values": [
      {"measurement": "suppression of the Verticillium", "setting": "[1]", "result": "only modest suppression"},
      {"measurement": "average Verticillium CFU per gram of dry soil", "setting": "[1]; average over rates: LSS 45 and 90 gal/acre, metam sodium 20 and 40 gal/acre, mixture 20 and 40 gal metam with 45 gal LSS, untreated 41", "result": "30 CFU per gram of dry soil"},
      {"measurement": "average CFU Pythium per gram of dry soil", "setting": "[2]", "result": "60 CFU per gram of dry soil"},
      {"measurement": "Microsclerotia (Verticillium) per gram of soil, ms/g, 2015", "setting": "[3]", "result": 3, "unit": "ms/g"},
      {"measurement": "averaged colonies of V. dahlia per gram of soil at four inches", "setting": "[4]; mixture 92 + 127 pounds/acre", "result": "30 colonies per gram of soil"},
      {"measurement": "averaged colonies of V. dahlia per gram of soil at eight inches", "setting": "[4]; mixture 92 + 127 pounds/acre (8 inch samples called suspect)", "result": "3 colonies per gram of soil"}
    ]}
  ]
}
